Results on two compounds are retold here after patent US4233309A, “Novel 1-substituted-3-acylpyrrole derivatives, platelet aggregation inhibitors containing them, as active ingredients, and processes for production of said derivatives” (Teijin Limited, priority 1977, dated 1980).

Values after ≈ are worked out from the molar mass of the structure shown. Like-named read-outs stand apart in the source and are kept apart here.

Assay [1] deals with platelet aggregation (platelet-rich plasmas (PRP) of guinea pigs). The experiment in a line: Activity of inhibiting platelet aggregation in vitro, guinea pig PRP, sodium arachidonate as aggregating agent (Table 1). It counts as cell-based, Hartley-strain male guinea pigs. The following applies: Cavia porcellus, sodium arachidonate 0.03 mM final, 37° C., final concentration, read-out: IC50 (minimum concentration of drug which showed a percent inhibition of more than 50%). On the procedure:
Some 1-substituted-3-acylpyrrole derivatives and other drugs were tested for platelet aggregation inhibiting activities in vitro using platelet-rich plasmas (PRP) of man and guinea pigs. The results are shown as minimum concentration of drugs which inhibit more than 50% of platelet aggregation induced by several aggregating agents.
In experiments with PRP of guinea pigs, sodium arachidonate (final concentration 0.03 mM) was used as an aggregating agent. In experiments with human PRP, sodium arachidonate (final concentration 0.1 mM), collagan suspension (final concentration 10 μg/ml), epinephrine solution (final concentration 20 μg/ml; for secondary aggregation), an epinephrine solution (final concentration 2 μg/ml; for primary aggregation) and ADP (final concentration 5 μM) were used as aggregating agents.
In an experiment with guinea pig PRP, citrated blood (containing 0.38% sodium citrate as a final concentration) was withdrawn by cardiac puncture from Hartley-strain male guinea pigs having a body weight of 350 to 600 g. The citrated blood was centrifuged at 1,000 rpm for 10 minutes at room temperature, and the supernatant platelet suspension (PRP) was separated.
The PRP was stored at room temperature, and used as soon as possible. Those which had been stored for more than 4 hours after preparation were not used.
For each test, a drug is dissolved in dimethylsulfoxide to a concentration of 10 mg/ml, and diluted with physiological saline to form 1 ml each of solutions having a concentration of 2500 μg/ml, 1000 μg/ml, 750 μg/ml, 500 μg/ml, 250 μg/ml and 100 μg/ml. A compound having a free carboxylic acid as a residue such as indomethacine and Ibprofen was dissolved in 0.1 M NaHCO3 to form a sodium salt solution having a concentration of 10 mg/ml. Then, the solution was diluted with physiological saline in the same way as above to form a test drug solution.
Arachidonic acid (99% pure, a product of Sigma Co., Ltd.) was dissolved in 0.1 M NaHCO3, and a 3.3 mM solution of sodium arachidonate was prepared. The solution was diluted with physiological saline to a concentration of 1 mM and used in the experiments. The 3.3 mM solution was stored in a refrigerator as a stock solution, and the 1 mM solution was newly prepared from the stock solution every time it was used.
Physiological saline (50 μl) and 50 μl of the aggregating agent solution were added to 400 μl of PRP which had been pre-warmed and stirred at 37° C. in a quvett set in a holder of an aggregometer. Platelet aggregation was thus initiated, and the change of light transmittance through a stirred platelet suspension was recorded for 3 minutes by a recorder joined to the aggregometer. An increase in transmittance after 3 minutes (T0) was used as a parameter of the rate of platelet aggregation in control experiments.
To 400 μl of PRP in a quvett was added 50 μl of a test drug solution. The mixture was pre-incubated and stirred for 2 minutes at 37° C. Then 50 μl of the aggregating agent was added to drug containing PRP and again aggregation responses were recorded as increases in light transmittance after 3 minutes (T1) in the same way as in (1) above. Percent inhibition was calculated from the formula [formula]
For the above in vitro test for the inhibition of platelet aggregation, reference may be had to H. M. Davis, J. Phyllis, K. Paul and W. Terry: Thromb. Res. 11, 217-226 (1977) and R. E. Anderson and J. G. Foulks: Thromb. Haemos. 36, 343-359 (1976).

Assay [2] deals with biosynthesis of prostaglandins (microsomes of the seminal vesicle of bovine). Kind of assay: Inhibitory effect on prostaglandin biosynthesis in vitro (Table 3). Format: biochemical. As to conditions: 4 μg/ml sodium arachidonate, bioassay on rat fundus stomach strips. Here is the method:
Sprangue-Dawley rats (male, 180-200 g) were fasted overnight, and killed by blow on the head. The stomach was isolated, and fundus stomach strips were prepared. The smooth muscle strips were perfused with Krebs-Hensleit solution (gassed with 95% O2 +5% CO2 gas) of 37° C. at a rate of […]. The Krebs-Hensleit solution contained 0.1 μg/ml of atropine, 0.1 μg/ml of phenoxybenzamine, 3 μg/ml of propranolol, 0.1 μg/ml of tripelennamine, and 0.2 μg/ml of methylsergide to prevent the effect of smooth muscle contracting substances, and 1 μg/ml of indomethacine to inhibit the biosynthesis of prostaglandin by the smooth muscles. Then, 150 μl of a reaction solution containing biologically synthesized prostaglandin was added to the perfusion solution, and the amount of the biologically synthesized prostaglandin was measured from the contraction of the smooth muscles. The contraction of the smooth muscles was recorded on a recorder using an isotonic transducer.
The reaction solution containing biologically synthesized prostaglandin was prepared in the following manner.
To 0.4 mg/ml of microsomes of the seminal vesicle of bovine were added 5 mM of L-tryptophan, 0.025 μM of bovine hemoglobin and 3 mμ of glutathione as cofactors. The mixture was incubated together with each of the test compounds shown in Table 4 at 37° C. for 2 minutes, and immediately then, 4 μg/ml of sodium arachidonate was added. The mixture was further incubated at 37° C. for 10 minutes, and immediately then, the prostaglandin activity of the reaction solution was measured by bioassay.
The microsomes of the seminal vesicle of bovine had been prepared by suspending microsomes of the seminal vesicle of bovine (a product of Miles Laboratories, Inc.) in a 50 mM Tris.HCl buffer (pH 7.4) using a glass homogenizer, and stored in ice water prior to use.
ID50 denotes the concentration of each test compound required to inhibit the biosynthesis of prostaglandins by 50%.

Assay [3] deals with platelet aggregation (guinea pig PRP, extra vivo). The experiment in a line: Inhibitory effect of compounds on platelet aggregation in extra vivo (Table 4). The arrangement: species or system Hartley-strain guinea pigs. As to conditions: Cavia porcellus, 100 mg/kg, route PS [sic], 1 h. On the procedure: The effect of the compounds shown in Table 4 on platelet aggregation was assessed using guinea pig in extra vivo.
Each of the test compounds was dissolved in propylene glycol so that its concentration became 100 mg/ml (dosage corresponded to 100 mg/kg) and 30 mg/ml (dosage corresponded to 30 mg/kg). The drug solution was administered either orally or subcutaneously to Hartley-strain guinea pigs (3 per group) having a body weight of 300 to 350 g. As a control, propylene glycol was administered. One hour after the administration, citrated blood was taken out by cardiac puncture, and centrifuged to obtain PRP (see Example 67).
In the case of oral administration, the animals had been fasted overnight.
Into a quvett set in a holder of an aggregometer and prewarmed at 37° C. with stirring, was put 450 μl of the above PRP, and then 50 μl of an aggregating agent was added. The aggregation curve was recorded for an additional 3 minutes, and an increase in light transmittance through PRP after 3 minutes (TB) was recorded (see Example 67). As a control, an increase of transmittance of PRP taken from a guinea pig group administered with propylene glycol alone (TA) was recorded in the same way above. The percent inhibitions were calculated in accordance with the following equation. [formula]
As the aggregating agent, sodium arachidonate (a final concentraton of 0.03 mM) and a collagen suspension (a final concentration of 5 μg/ml) were used.
The percent inhibitions in the above table are averages of three guinea pigs. For details of the above extra vivo test about inhibition of platelet aggregation, the literature references described in Example 67 may be referred to.

Assay [4] deals with carrageenan edema. The experiment in a line: Antiinflammatory activity (carrageenan edema of rat paw, Table 5). Format: in vivo, Sprangue-Dawley (SD) male rats. As to conditions: 100 mg/kg orally, 3 h after 1% carrageenan. On the procedure:
Sprangue-Dawley (SD) male rats with a body weight of 160 to 180 g, four in each group, were used. The volume of the left leg was measured, and each of the test compounds shown in Table 5 (100 mg/kg dissolved in polyethylene glycol so as to provide a volume of 2 ml/kg) was orally administered. One hour later, 0.1 ml of 1% carrageenan (dissolved in physiological saline) as an inflammation-inducing substance was subcutaneously injected to the paw of the left hind leg. A control group was orally administered with 2 ml/kg of polyethylene glycol. As a positive control, 25 mg/kg of Ibprofen was similarly administered. Three hours after the injection of 1% carrageenan, the volume of the left leg was measured, and the ratio of edema was calculated from the volume before the administration of the carrageenan. The percent inhibition of edema in comparison with the control group was determined.

Where [5] appears, read: collagen 5 μg/ml, read-out: Percent inhibition of platelet aggregation, collagen.
[6] abbreviates: sodium arachidonate 0.03 mM, read-out: Percent inhibition of platelet aggregation, sodium arachidonate.

The term inhibition denotes the change of the read-out against control, counted positive when it falls. Turning to `COCC(C)n1c(C)cc(C(=O)c2ccccc2)c1C` (stereo not shown) [Compound 206, 2-(3-benzoyl-2,5-dimethylpyrrol-1-yl)-2-methylethyl methyl ether], the IC50 in assay [1] stood at 2.5 µg/mL (≈ 9.21 µM). In assay [2], the “ID50 (concentration required to inhibit the biosynthesis of prostaglandins by 50%)” value was determined as 18.4 µg/mL. The inhibition at 100 mg/kg came out at 97% in assay [3] (setting [5]) and 90% in assay [3] (setting [6]). Also, the “Percent inhibition of edema” value in assay [4] is reported as 10%.
With `CC(=O)OCC(C)n1c(C)cc(C(=O)c2ccccc2)c1C` (stereo not shown) [Compound 306, 2-(3-benzoyl-2,5-dimethylpyrrol-1-yl)-2-methylethyl acetate], the IC50 in assay [1] amounted to 7.5 µg/mL. Besides, the “ID50 (concentration required to inhibit the biosynthesis of prostaglandins by 50%)” value in assay [2] is 5.6 µg/mL. Further, the values for the inhibition at 100 mg/kg in assay [3] (setting [5]) and in assay [3] (setting [6]) were 34% and 62%, respectively. In addition, the “Percent inhibition of edema” value in assay [4] stood at 16%.
